In the NIST ThermoML archive (doi:10.1016/j.tca.2019.178383):
Numbers after ± are expanded uncertainties.

Assay: xn = mol fraction of the nth substance listed
Conditions: for surface tension liquid-gas: Maximal bubble pressure; for mass density: 100 kPa, Liquid, Vibrating tube method

CCn1cc[n+](CCOC)c1.O=S(=O)([O-])C(F)(F)F + CC(C)O
Conditions	mass density [kg/m3]	surface tension liquid-gas [mN/m]
288.15 K, x1 = 0.0997	929.227 ± 2.7	21.4 ± 1.5
288.15 K, x1 = 0.2004	1030.66 ± 2.2	22.3 ± 1.5
288.15 K, x1 = 0.3004	1105.98 ± 1.9	23.8 ± 1.5
288.15 K, x1 = 0.4003	1163.83 ± 1.7	25.5 ± 1.5
288.15 K, x1 = 0.5004	1210.18 ± 1.6	27.2 ± 1.5
288.15 K, x1 = 0.6008	1248.32 ± 1.5	28.9 ± 1.5
288.15 K, x1 = 0.7	1279.5 ± 1.5	30.8 ± 1.5
288.15 K, x1 = 0.7998	1306.12 ± 1.4	32.8 ± 1.5
288.15 K, x1 = 0.9003	1329.28 ± 1.4	34.5 ± 1.5
288.15 K, x1 = 1	1348.94 ± 1.4	36.3 ± 1.5
293.15 K, x1 = 0.0997	925.015 ± 2.7	21.1 ± 1.5
293.15 K, x1 = 0.2004	1026.4 ± 2.2	22 ± 1.5
293.15 K, x1 = 0.3004	1101.69 ± 1.9	23.6 ± 1.5
293.15 K, x1 = 0.4003	1159.55 ± 1.7	25.3 ± 1.5
293.15 K, x1 = 0.5004	1205.9 ± 1.6	27 ± 1.5
293.15 K, x1 = 0.6008	1244.05 ± 1.5	28.6 ± 1.5
293.15 K, x1 = 0.7	1275.23 ± 1.5	30.6 ± 1.5
293.15 K, x1 = 0.7998	1301.86 ± 1.4	32.6 ± 1.5
293.15 K, x1 = 0.9003	1325.01 ± 1.4	34.3 ± 1.5
293.15 K, x1 = 1	1344.66 ± 1.4	36.1 ± 1.5
298.15 K, x1 = 0.0997	920.772 ± 2.7	20.7 ± 1.5
298.15 K, x1 = 0.2004	1022.12 ± 2.2	21.7 ± 1.5
298.15 K, x1 = 0.3004	1097.4 ± 1.9	23.3 ± 1.5
298.15 K, x1 = 0.4003	1155.27 ± 1.7	25 ± 1.5
298.15 K, x1 = 0.5004	1201.63 ± 1.6	26.7 ± 1.5
298.15 K, x1 = 0.6008	1239.8 ± 1.5	28.4 ± 1.5
298.15 K, x1 = 0.7	1270.99 ± 1.5	30.4 ± 1.5
298.15 K, x1 = 0.7998	1297.61 ± 1.4	32.3 ± 1.5
298.15 K, x1 = 0.9003	1320.76 ± 1.4	34.1 ± 1.5
298.15 K, x1 = 1	1340.41 ± 1.4	35.8 ± 1.5
303.15 K, x1 = 0.0997	916.497 ± 2.7	20.3 ± 1.5
303.15 K, x1 = 0.2004	1017.82 ± 2.2	21.5 ± 1.5
303.15 K, x1 = 0.3004	1093.11 ± 1.9	23.1 ± 1.5
303.15 K, x1 = 0.4003	1150.99 ± 1.7	24.8 ± 1.5
303.15 K, x1 = 0.5004	1197.38 ± 1.6	26.5 ± 1.5
303.15 K, x1 = 0.6008	1235.56 ± 1.5	28.2 ± 1.5
303.15 K, x1 = 0.7	1266.76 ± 1.5	30.1 ± 1.5
303.15 K, x1 = 0.7998	1293.38 ± 1.4	32.1 ± 1.5
303.15 K, x1 = 0.9003	1316.53 ± 1.4	33.9 ± 1.5
303.15 K, x1 = 1	1336.17 ± 1.4	35.5 ± 1.5
308.15 K, x1 = 0.0997	912.188 ± 2.7	20 ± 1.5
308.15 K, x1 = 0.2004	1013.52 ± 2.2	21.2 ± 1.5
308.15 K, x1 = 0.3004	1088.82 ± 1.9	22.8 ± 1.5
308.15 K, x1 = 0.4003	1146.73 ± 1.7	24.6 ± 1.5
308.15 K, x1 = 0.5004	1193.13 ± 1.6	26.3 ± 1.5
308.15 K, x1 = 0.6008	1231.33 ± 1.5	28 ± 1.5
308.15 K, x1 = 0.7	1262.54 ± 1.4	29.8 ± 1.5
308.15 K, x1 = 0.7998	1289.17 ± 1.4	31.9 ± 1.5
308.15 K, x1 = 0.9003	1312.32 ± 1.4	33.6 ± 1.5
308.15 K, x1 = 1	1331.96 ± 1.4	35.3 ± 1.5
313.15 K, x1 = 0.0997	907.842 ± 2.7	19.7 ± 1.5
313.15 K, x1 = 0.2004	1009.19 ± 2.2	21 ± 1.5
313.15 K, x1 = 0.3004	1084.53 ± 1.9	22.6 ± 1.5
313.15 K, x1 = 0.4003	1142.47 ± 1.7	24.4 ± 1.5
313.15 K, x1 = 0.5004	1188.9 ± 1.6	26.1 ± 1.5
313.15 K, x1 = 0.6008	1227.11 ± 1.5	27.8 ± 1.5
313.15 K, x1 = 0.7	1258.34 ± 1.4	29.6 ± 1.5
313.15 K, x1 = 0.7998	1284.98 ± 1.4	31.7 ± 1.5
313.15 K, x1 = 0.9003	1308.13 ± 1.4	33.3 ± 1.5
313.15 K, x1 = 1	1327.77 ± 1.4	35.1 ± 1.5
318.15 K, x1 = 0.0997	903.442 ± 2.7	19.4 ± 1.5
318.15 K, x1 = 0.2004	1004.85 ± 2.2	20.7 ± 1.5
318.15 K, x1 = 0.3004	1080.23 ± 1.9	22.4 ± 1.5
318.15 K, x1 = 0.4003	1138.22 ± 1.7	24.2 ± 1.5
318.15 K, x1 = 0.5004	1184.68 ± 1.6	25.9 ± 1.5
318.15 K, x1 = 0.6008	1222.91 ± 1.5	27.6 ± 1.5
318.15 K, x1 = 0.7	1254.16 ± 1.4	29.4 ± 1.5
318.15 K, x1 = 0.7998	1280.8 ± 1.4	31.5 ± 1.5
318.15 K, x1 = 0.9003	1303.96 ± 1.4	33.1 ± 1.5
318.15 K, x1 = 1	1323.6 ± 1.4	34.9 ± 1.5
